Tests used:
amyloid plaques = experiment: amyloid plaque formation in mice after oral application; type: in vivo
Text: Unexpectedly, it has now been ascertained from investigations with mice is involving the oral application of compatible solutes ectoine, hydroxyectoine and firoin A that this enabled the formation of amyloid plaques to be reduced. Likewise, through the administration of compatible solutes the occurrence of neuropathologic effects could be reduced. […] It is to be assumed that such a preventive effect but nevertheless the therapeutic effect as well is primarily attributable to the amyloid-inhibiting properties of “compatible solutes”.

[1] = test system: chronically inflammable intestinal disease; experiment: mouse model for Crohn's disease, oral compatible solutes; type: in vivo; conditions: oral ingestion
Text: Moreover, immunological investigations have shown that the TH-2 TH-1 approach typically adopted for the chronically inflammable intestinal disease may to some extent be circumvented by “compatible solutes”. However, the positive effect of “compatible solutes” is not only limited to an alleviation of the symptoms of chronically inflammable intestinal diseases but in addition is characterized by a pronounced preventive potential. […] It is to be assumed that such a preventive effect but also the therapeutic effect is primarily attributable to the anti-inflammatory properties of “compatible solutes” which on the one hand are aimed at the intestinal epithelial cell but also at the helper T lymphocytes deemed to be the cause of the pathogenesis.

amyloid fibrils = conditions: in vitro; Arora et al. (2004); cited from earlier work

| Structure (SMILES) | formation of amyloid plaques (amyloid plaques) | course of chronically inflammable intestinal diseases [1] | formation of protein deposits, so-called amyloid fibrils (amyloid fibrils) |
| --- | --- | --- | --- |
| NC(=O)[C@H](CO)O[C@@H]1O[C@H](CO)[C@@H](O)[C@H](O)[C@@H]1O [firoin A, mannosylglyceramide] | reduced | – | – |
| CC1=NCCC(C(=O)O)N1 (centres unmarked) [ectoine, 2-methyl-4-carboxy-3,4,5,6-tetrahydropyrimidine] | reduced | favorably influenced | inhibit |
| CC1=NCC(O)C(C(=O)O)N1 (centres unmarked) [hydroxyectoine, 2-methyl-4-carboxy-5-hydroxy-3,4,5,6-tetrahydropyrimidine] | reduced | – | – |
